Source: patent US9167837B2, “Peptides imparting umami, salt, dairy and bitter flavor” (International Flavors & Fragrances Inc., priority 2007, dated 2015)

Tests used:
[1] = Addition of flavor active peptide to seasoned microwave popcorn, evaluation of imparted flavor; conditions: approximately 0.1% peptide in popped microwave popcorn with White Cheddar Snack Seasoning (Table 3)
Protocol: Addition of the Gly-Pro-Phe-Pro-Ile (SEQ ID NO:2) peptide to the base microwave popcorn listed in Table 2 was carried out to evaluate the flavor imparted by the flavor active peptide.
The sodium content of the resulting seasoned popcorn was 596.6 mg Na^+/1 oz serving.

[2] = Addition of flavor active peptide to unflavored cheese sauce, evaluation of imparted flavor; conditions: 0.015% (w/w based) peptide added to unflavored cheese sauce of Table 1
Protocol: Addition of the Gly-Pro-Phe-Pro-Ile (SEQ ID NO:2) peptide to the unflavored cheese sauce listed in Table 1 was carried out to evaluate the flavor imparted by the flavor active peptide. The cheese sauce formulation can be described as having a mild, Monterey Jack cheese sauce flavor with some salty and savory notes.

Gly-Pro-Phe-Pro-Ile (GPFPI) [Gly-Pro-Phe-Pro-Ile (SEQ ID NO:2)]
flavor imparted by the flavor active peptide [1]: imparted an increase in cheesyness, mouthfeel, and some umami character | flavor imparted by the flavor active peptide [2]: made the sauce taste more salty, creamy and dairy
